Values of other authors, collected in US20210128641A1, “COMPOSITIONS AND METHODS FOR TREATING SKIN AND MUCOUS MEMBRANE DISEASES” (The Regents of the University of California, priority 2014, published 2021).

Experiments:
Propionibacterium acnes = settings: in vitro
keratinocytes = settings: in vitro

Substance | growth of Propionibacterium acnes on agar plates (Propionibacterium acnes) | death of keratinocytes caused by Staphylococcus aureus (keratinocytes)
Lactobacillus acidophilus | inhibit growth | –
Lactobacillus plantarum | inhibit growth | –
Lactobacillus reuteri | – | reduced death
